The target in this experiment is T1, human MC4-R (Homo sapiens, UniProt P32245).
T1 construct: expressed in transfected cells; host or cells: HEK293 T-REx (tetracycline-regulated, Invitrogen); cell line from Palatin Technologies with license from the University of Michigan
Kind of experiment: cAMP functional assay in HEK-293 T-REx cells expressing human MC4-R, induced with doxycycline 0.1 ng/mL (low density). Format: cell-based. The settings on record: for Emax: HEK293-T-REx. From the text: A HEK293 cell line transfected with human MC4-R (from Palatin Technologies, US, with license from the University of Michigan) was used. The human MC4-R was introduced to HEK293 by using the T-REx™ System, Invitrogen. The T-REx™ System employs a tetracycline-regulated mammalian expression system that uses regulatory elements from the E. coli Tn10-encoded tetracycline (Tet) resistance operon. By use of the T-REx™ System, expression of the gene of interest, the human MC4-R gene, is repressed in the absence of tetracycline or doxycycline and induced in the presence of tetracycline or doxycycline (see T-REx™ System Manual, published by Invitrogen).
Cells were then counted and volume was adjusted to 5×10^4 cells per 200 μL.
The cells were then dispensed into 96-well plates (BD 353916) in 198 μL (about 5×10^4) cells/well and incubated for 10 minutes at 37° C. The compound to be tested was diluted with DMSO to a final concentration of 1 mM. Serial dilution was prepared in polypropylene removable 12-well library tube strips (VWR cat #83009-682). 120 μL of the 1 mM compound stock was pipetted in the second column on the plate.
2 μL of the standard, [Nle^4, D-Phe^7]alpha-Melanocyte Stimulating Hormone (NDP-α-MSH), or compound was added to the 96-well plate using the Janus robotic system. All assay samples were run in duplicate (i.e. each sample was in two low dox and two high dox plates, respectively). The plates were gently shaken and incubated for 15 minutes at 37° C. The reaction was stopped by adding 15 μL of lysis buffer per well and the plates were shakened for 30 minutes at room temperature.
Agonist stimulation of the MC4-R activates adenylate cyclase, which is an enzyme that catalyses the formation 3′,5′-cyclic adenosine monophosphate (cAMP) from adenosine triphosphate (ATP). […] Fluoresence ratios were then calculated as described in the CisBio HTRF kit, with GraphPad Prism software used to plot the change in fluorescence percent values versus cAMP concentration using the variable slope dose response curve and, based on calculated cAMP concentrations, to determine EC50 and Emax values. […]

Where [1] appears, read: maximal cAMP stimulation, NDP-α-MSH = 100%, doxycycline 0.1 ng/mL, averages of all comparable assays, read-out: Emax.
[2] abbreviates: human MC4-R cAMP assay, doxycycline 0.1 ng/mL, averages of all comparable assays, read-out: Ec50.

SMILES strings stand for the structures. pEC50: −log10 of the molar value. Read-outs that look alike come from different tables or passages of the source. Bridge positions count the residues as written; N and C are the ends. Square brackets hold non-standard residues; d marks the D form. Peptide text beside a SMILES is read from it. Orn = NCCC[C@H](N)C(=O)O

T1 sequence (P32245 whole entry): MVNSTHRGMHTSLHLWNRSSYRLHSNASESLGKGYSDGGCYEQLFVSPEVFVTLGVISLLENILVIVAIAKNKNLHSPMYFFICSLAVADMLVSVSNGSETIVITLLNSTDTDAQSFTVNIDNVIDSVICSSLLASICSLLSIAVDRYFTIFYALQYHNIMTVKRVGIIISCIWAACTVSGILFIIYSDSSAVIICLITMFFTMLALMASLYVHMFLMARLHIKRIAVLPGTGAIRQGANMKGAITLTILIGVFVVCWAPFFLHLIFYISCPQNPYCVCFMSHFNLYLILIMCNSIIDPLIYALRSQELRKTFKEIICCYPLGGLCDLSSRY

The Emax is the greatest response seen or fitted, relative to the assay's reference. With `CCCC[C@H](NC(C)=O)C(=O)N[C@H]1CC(=O)NCCCC[C@@H](C(=O)O)NC(=O)[C@H](Cc2c[nH]c3ccccc23)NC(=O)[C@H](CCCNC(=N)N)NC(=O)[C@@H](Cc2ccccc2)NC(=O)[C@H](Cc2c[nH]cn2)NC1=O` [Ac-Nle-cyclo(Asp-His-D-Phe-Arg-Trp-Lys)-OH, reference compound], the Emax came to 81%.
The pEC50 is −log10 of the EC50, conventionally taken in molar units. Take `CC(=O)N[C@@H](CCCNC(=N)N)C(=O)N[C@H]1CCC(=O)NCCC[C@@H](C(=O)O)NC(=O)[C@H](Cc2c[nH]c3ccccc23)NC(=O)[C@H](CCCNC(=N)N)NC(=O)[C@@H](Cc2ccccc2)NC(=O)[C@H](Cc2c[nH]cn2)NC1=O` [No. 3, Ac-Arg-cyclo(Glu-His-D-Phe-Arg-Trp-Orn)-OH] (Ac-REH[dF]RW[Orn]-OH; lactam 2-7): the Emax under setting [1] stood at 83%. For the same compound, the negative-log EC50 (pEC50) under setting [2] is 9.15.
The like results for `CC(=O)N[C@@H](CCCNC(=N)N)C(=O)N[C@H]1CCC(=O)NCCC[C@@H](C(=O)O)NC(=O)[C@H](Cc2c[nH]c3ccccc23)NC(=O)[C@H](CCCNC(=N)N)NC(=O)[C@@H](Cc2ccccc2)NC(=O)[C@H](CCN)NC1=O` [No. 5, Ac-Arg-cyclo(Glu-Dab-D-Phe-Arg-Trp-Orn)-OH] were, in that order, 94% and 8.70.
The like results for `CC(=O)N[C@@H](CCCNC(=N)N)C(=O)N[C@H]1CCC(=O)NCCC[C@@H](C(=O)O)NC(=O)[C@H](Cc2c[nH]c3ccccc23)NC(=O)[C@H](CCCNC(=N)N)NC(=O)[C@@H](Cc2ccccc2)NC(=O)[C@H](CCCN)NC1=O` [No. 7, Ac-Arg-cyclo(GIu-Orn-D-Phe-Arg-Trp-Orn)-OH] were, in that order, 92% and 8.40.
For `CC(=O)N[C@@H](CCCNC(=N)N)C(=O)N[C@H]1CCC(=O)NCCC[C@@H](C(=O)O)NC(=O)[C@H](Cc2c[nH]c3ccccc23)NC(=O)[C@H](CCCNC(=N)N)NC(=O)[C@@H](Cc2ccccc2)NC(=O)[C@H](CCCNC(=N)N)NC1=O` [No. 9, Ac-Arg-cyclo(Glu-Arg-D-Phe-Arg-Trp-Orn)-OH], in that order: 82% and 8.70.
As for `CC(=O)N[C@@H](CCCNC(=N)N)C(=O)N[C@H]1CCC(=O)NCCC[C@@H](C(N)=O)NC(=O)[C@H](Cc2c[nH]c3ccccc23)NC(=O)[C@H](CCCNC(=N)N)NC(=O)[C@@H](Cc2ccccc2)NC(=O)[C@H](CCCNC(=N)N)NC1=O` [No. 10, Ac-Arg-cyclo(Glu-Arg-D-Phe-Arg-Trp-Orn)-NH2], the Emax under setting [1] was found to be 98%.
Still for that read-out and setting: for `CC(=O)N[C@@H](CCCNC(=N)N)C(=O)N[C@H]1CCC(=O)NCCC[C@@H](C(=O)O)NC(=O)[C@H](Cc2c[nH]c3ccccc23)NC(=O)[C@H](CCCNC(=N)N)NC(=O)[C@@H](Cc2ccccc2)NC(=O)[C@H](CCC(N)=O)NC1=O` [No. 11, Ac-Arg-cyclo(Glu-Gln-D-Phe-Arg-Trp-Orn)-OH] the value was 81%; for `CC(=O)N[C@@H](CCCNC(=N)N)C(=O)N[C@H]1CCC(=O)NCCC[C@@H](C(N)=O)NC(=O)[C@H](Cc2c[nH]c3ccccc23)NC(=O)[C@H](CCCNC(=N)N)NC(=O)[C@@H](Cc2ccccc2)NC(=O)[C@@H]2C[C@@H](O)CN2C1=O` [No. 14, Ac-Arg-cyclo(Glu-Hyp-D-Phe-Arg-Trp-Orn)-NH2], 104%.
On to `CC(=O)N[C@@H](CCCNC(=N)N)C(=O)N[C@H]1CCC(=O)NCCC[C@@H](C(N)=O)NC(=O)[C@H](Cc2c[nH]c3ccccc23)NC(=O)[C@H](CCCNC(=N)N)NC(=O)[C@@H](Cc2ccccc2)NC(=O)[C@H](CCCNC(N)=O)NC1=O` [No. 15, Ac-Arg-cyclo(Glu-Cit-D-Phe-Arg-Trp-Orn)-NH2], for which the maximal response (Emax) under setting [1] amounted to 87%.
As to `CC(=O)N[C@@H](CCCNC(=N)N)C(=O)N[C@H]1CCC(=O)NCCC[C@@H](C(N)=O)NC(=O)[C@H](Cc2c[nH]c3ccccc23)NC(=O)[C@H](CCCNC(=N)N)NC(=O)[C@@H](Cc2ccccc2)NC(=O)[C@H](CCCCN)NC1=O` [No. 16, Ac-Arg-cyclo(Glu-Lys-D-Phe-Arg-Trp-Orn)-NH2] (Ac-REK[dF]RW[Orn]-NH2; lactam 2-7), the maximal response (Emax) under setting [1] came to 104%. In addition, the negative-log EC50 (pEC50) under setting [2] was 8.70.
Consider `CC(=O)NCC[C@@H]1NC(=O)[C@@H](NC(=O)[C@H](CCCNC(=N)N)NC(C)=O)CCC(=O)NCCC[C@@H](C(N)=O)NC(=O)[C@H](Cc2c[nH]c3ccccc23)NC(=O)[C@H](CCCNC(=N)N)NC(=O)[C@@H](Cc2ccccc2)NC1=O` [No. 18, Ac-Arg-cyclo(Glu-Dab(Acetyl)-D-Phe-Arg-Trp-Orn)-NH2], for which the Emax under setting [1] came to 75%.
As to `CC(=O)N[C@@H](CCCNC(=N)N)C(=O)N[C@H]1CCC(=O)NCCC[C@@H](C(=O)NC2CC2)NC(=O)[C@H](Cc2c[nH]c3ccccc23)NC(=O)[C@H](CCCNC(=N)N)NC(=O)[C@@H](Cc2ccccc2)NC(=O)[C@H](CCC(N)=O)NC1=O` [No. 19, Ac-Arg-cyclo(Glu-Gln-D-Phe-Arg-Trp-Orn)-NH-cycProp], the Emax under setting [1] stood at 91%. In addition, under setting [2], the pEC50 is 9.00.
The like results for `CC(=O)N[C@@H](CCCNC(=N)N)C(=O)N[C@H]1CCC(=O)NCCC[C@@H](C(=O)O)NC(=O)[C@H](Cc2c[nH]c3ccccc23)NC(=O)[C@H](CCCNC(=N)N)NC(=O)[C@@H](Cc2ccccc2)NC(=O)[C@H](CC(N)=O)NC1=O` [No. 20, Ac-Arg-cyclo(Glu-Asn-D-Phe-Arg-Trp-Orn)-OH] were, in that order, 76% and 7.92.
The like results for `CC(=O)N[C@H]1CCC(=O)NCCC[C@@H](C(N)=O)NC(=O)[C@H](Cc2c[nH]c3ccccc23)NC(=O)[C@H](CCCNC(=N)N)NC(=O)[C@@H](Cc2ccccc2)NC(=O)[C@H](CCC(N)=O)NC1=O` [No. 21, Ac-cyclo(Glu-Gln-D-Phe-Arg-Trp-Orn)-NH2] (Ac-EQ[dF]RW[Orn]-NH2; lactam 1-6) were, in that order, 49% and 7.59.
For `CC(=O)N[C@H](CCCNC(=N)N)C(=O)N[C@H]1CCCNC(=O)CC[C@@H](C(N)=O)NC(=O)[C@H](Cc2c[nH]c3ccccc23)NC(=O)[C@H](CCCNC(=N)N)NC(=O)[C@@H](Cc2ccccc2)NC(=O)[C@H](Cc2c[nH]cn2)NC1=O` [No. 39, Ac-D-Arg-cyclo(Orn-His-D-Phe-Arg-Trp-Glu)-NH2], in that order: 103% and 9.70.
Take `CC(=O)N[C@@H](CCCNC(=N)N)C(=O)N[C@H]1CCCNC(=O)CC[C@@H](C(=O)O)NC(=O)[C@H](Cc2c[nH]c3ccccc23)NC(=O)[C@H](CCCNC(=N)N)NC(=O)[C@@H](Cc2ccccc2)NC(=O)[C@H](CCN)NC1=O` [No. 42, Ac-Arg-cyclo(Orn-Dab-D-Phe-Arg-Trp-Glu)-OH]: the Emax under setting [1] was determined as 100%.
Same read-out and setting: the value for `CC(=O)N[C@@H](CCCNC(=N)N)C(=O)N[C@H]1CCCNC(=O)CC[C@@H](C(N)=O)NC(=O)[C@H](Cc2c[nH]c3ccccc23)NC(=O)[C@H](CCCNC(=N)N)NC(=O)[C@@H](Cc2ccccc2)NC(=O)[C@H](CC(N)=O)NC1=O` [No. 46, Ac-Arg-cyclo(Orn-Asn-D-Phe-Arg-Trp-Glu)-NH2] was 88%; that for `CC(=O)N[C@@H](CCCNC(=N)N)C(=O)N[C@H]1CC(=O)NCCCC[C@@H](C(N)=O)NC(=O)[C@H](Cc2c[nH]c3ccccc23)NC(=O)[C@H](CCCNC(=N)N)NC(=O)[C@@H](Cc2ccccc2)NC(=O)[C@H](CCN)NC1=O` [reference compound] was 91%; that for `CC(=O)N[C@@H](CCCNC(=N)N)C(=O)N[C@H]1CC(=O)NCCCC[C@@H](C(=O)O)NC(=O)[C@H](Cc2c[nH]c3ccccc23)NC(=O)[C@H](CCCNC(=N)N)NC(=O)[C@@H](Cc2ccccc2)NC(=O)[C@H](CCCNC(=N)N)NC1=O` [reference compound] was 75%.
On the same count and under the same terms, for `CC(=O)N[C@@H](CCCNC(=N)N)C(=O)N[C@H]1CC(=O)NCCCC[C@@H](C(N)=O)NC(=O)[C@H](Cc2c[nH]c3ccccc23)NC(=O)[C@H](CCCNC(=N)N)NC(=O)[C@@H](Cc2ccccc2)NC(=O)[C@H](CCCNC(=N)N)NC1=O` [reference compound] the value was 68%.
For the compound `CC(=O)N[C@@H](CCCNC(=N)N)C(=O)N[C@H]1CC(=O)NCCCC[C@@H](C(=O)O)NC(=O)[C@H](Cc2c[nH]c3ccccc23)NC(=O)[C@H](CCCNC(=N)N)NC(=O)[C@@H](Cc2ccccc2)NC(=O)[C@H](CCC(N)=O)NC1=O` [reference compound], under setting [1], the maximal effect (Emax) was 80%. Moreover, the negative logarithm of the EC50 (pEC50) under setting [2] is 7.72.
As for `CC(=O)N[C@@H](CCCNC(=N)N)C(=O)N[C@H]1CC(=O)NCCCC[C@@H](C(N)=O)NC(=O)[C@H](Cc2c[nH]c3ccccc23)NC(=O)[C@H](CCCNC(=N)N)NC(=O)[C@@H](Cc2ccccc2)NC(=O)[C@H](CCC(N)=O)NC1=O` [reference compound], the negative logarithm of the EC50 (pEC50) was 7.77. The maximal effect (Emax) under setting [1] amounted to 85%.

(Values after patent US20120077957A1, “Lactam-Bridged Melanocortin Receptor-Specific Peptides” (PALATIN TECHNOLOGIES, INC., priority 2009, published 2012).)
